# Source: patent US5340587A, “Liposome/bronchodilator method & System” (priority 1989, dated 1994)
# Where a name gives a salt, the structure may show the parent alone.
# Key:
# [1] = Table 1; cited from earlier work
# [2] = in vivo
# Method: This liposome-protective effect is illustrated in FIGS. 1A and 1B, which graph percent increases in heart rate, above a pre-drug level, in animals receiving a β2 -agonist in free (open squares), or liposomal form. The two liposomal formulations are characterized by relatively short drug-release half life (open circles, FIG. 1A), or a relatively long drug-release half life (closed circles, FIG. 1B). Heart rate was measured at 15, 45, 75, and 105 minutes after drug administration, and immediately before the animal received a bronchoconstricting dose of histamine by inhalation. […] With liposome-encapsulated drug, however, the increase in heart rate was substantially lower and more constant over the test period.
# [3] = tested on: acetylcholine-induced bronchoconstriction; experiment: protection against acetylcholine-induced bronchoconstriction (FIG. 4); type: in vivo, mongrel dogs; details: inhalation, high dose MPS, about four hours (FIG. 4)
# From the text: This parameter reflects the increase in airway resistance (bronchoconstriction) immediately after administration of acetylcholine to induce bronchoconstriction. That is, the percent protection indicates the percent increase in airway resistance relative to a pre-drug level, following acetylcholine. […] It is noted that this study involved relatively high dose levels of MPS (which were needed to protect against the severe bronchoconstriction induced by the acetylcholine aerosols).
# This example examines the therapeutic effect of free and liposome-encapsulated metaproteranol sulfate (elevated dosage levels) on bronchoconstriction induced by aerosols of acetylcholine (ACH).
# Two mongrel dogs, a 20 kg male and a 30 kg female, were anesthetized with an initial i.v. bolus injection of sodium thiopental (10 mg/kg body weight) and sodium pentabarbital (20 mg/kg body weight) and subsequent boluses of sodium thiopental every thirty minutes, or as needed, to maintain the dog in an anesthetized state over a four hour test period. […] Air flow was monitored by a pneumotachograph connected to the endotracheal tube and the respirator and connected to a differential pressure transducer. Transpulmonary pressure was monitored by a differential pressure transducer, one port connected to a side arm of the tracheal tube and the other end connected to the esophageal balloon catheter. […]
# bronchoconstriction = details: free vs liposomal-entrapped MPS; cited from earlier work
# [4] = blood plasma MPS levels after inhalation (FIG. 2); type: in vivo; details: inhaled or intranasal
# [5] = tested on: histamine-induced bronchoconstriction; experiment: determination of therapeutic dose of free drug against histamine-induced bronchoconstriction; type: in vivo, guinea pigs; details: free form, inhalation
# Method: The therapeutic doses of terbutaline sulfate, and salbutamol sulfate which were used in the present study were determined as follows. […] These drug doses, adjusted for the body weight of the test animal, were administered by inhalation in free form, and their effects on the histamine-induced bronchoconstriction were determined as above. MPS was also tested in the initial drug-dose study. […] The therapeutic doses per animal determined from the study were: 39 μg MPS (2× recommended dose); 15 μg terbutaline (2× recommended dose); and 1.5 μg salbutamol (1× recommended dose). The therapeutic dose of MPS is approximately 60 times less than the dose used in the experiments reported above, and in Example VI.
# [6] = in vivo; cited from earlier work
# [7] = tested on: histamine-induced bronchoconstriction; experiment: histamine-induced bronchoconstriction: airway resistance and lung compliance (FIGS. 5, 6); type: in vivo, guinea pigs; details: terbutaline, relative to baseline
# Method: The study described in Example VII illustrates the increased protection, at extended time periods, achievable with liposomal drug administration. Briefly summarizing the Example VII study, terbutaline sulfate or salbutamol sulfate, in either free or liposomal form, was administered by inhalation. At several times after drug administration, the test animal was challenged with aerosolized histamine, to induce bronchoconstriction. At the beginning of each test, prior to administration of the β2 -agonist, and immediately after each histamine dose, airway resistance and lung compliance in the animal were measured. Airway resistance, which is measured at points of equal lung volume during the breathing cycle, provides a measure of the resistance to gas flow through the large air passages of the lung. Lung compliance, which is measured at zero flow points in the breathing cycle, reflects the pressure changes required to effect the lung volume change over the breathing cycle. The resistance and compliance values determined at the beginning of the test serve as baseline values for determining the percentage changes in resistance and compliance, in response to histamine-induced bronchoconstriction.
# Each time point was calculated as the difference in airway resistance shortly after histamine administration and at the beginning of the test (baseline value) divided by the baseline value. […]
SMILES,Tc (transition temperature) [1] [C.°],protection against bronchoconstriction at the recommended dose [5],therapeutic dose per animal [5] [µg],further results
"CCCCCCCCCCCCCC(=O)OC[C@H](COP(=O)([O-])OCC[N+](C)(C)C)OC(=O)CCCCCCCCCCCCC [DMPC, dimyristoyl phosphatidyl choline]",23,–,–,–
"CCCCCCCC/C=C\CCCCCCCC(=O)OCC(COP(=O)([O-])OCC[N+](C)(C)C)OC(=O)CCCCCCC/C=C\CCCCCCCC (stereo not drawn) [DOPC, dioleoyl phosphatidyl choline]",-22,–,–,–
"CCCCCCCCCCCCCCCC(=O)OC[C@H](COP(=O)([O-])OCC[N+](C)(C)C)OC(=O)CCCCCCCCCCCCCCC [DPPC, dipalmitoyl phosphatidyl choline]",41,–,–,–
"CCCCCCCCCCCCCCCCCC(=O)OCC(COP(=O)([O-])OCC[N+](C)(C)C)OC(=O)CCCCCCCCCCCCCCCCC (stereo not drawn) [DSPC, distearoyl phosphatidyl choline]",55,–,–,–
"CC(C)NCC(O)c1cc(O)cc(O)c1 (stereo not drawn) [MPS, metaproteranol sulfate]",–,necessary to double the recommended dose in order to achieve effective protection,39,"increase in heart rate [2]: relatively high initial heart rate increase, with a slow decline over the test period; percent protection from ACH-induced bronchoconstriction [3]: substantially the same degree of protection against ACH-induced bronchoconstriction; percent protection against bronchoconstriction (bronchoconstriction): about the same for both free drug and liposomal-entrapped drug; Cmax ([4]; free drug within 15 minutes, read-out: blood plasma MPS level, high): ~80 ng/mL; concentration at 2 h ([4]; over a two-hour period, read-out: blood plasma MPS level at end of test period): ~20 ng/mL; plasma level course [6]: rapid drop in plasma levels"
CC(C)(C)NCC(O)c1ccc(O)c(CO)c1 (stereo not drawn) [salbutamol sulfate],–,good protection against bronchoconstriction,1.5,–
CC(C)(C)NCC(O)c1cc(O)cc(O)c1 (stereo not drawn) [terbutaline sulfate],–,necessary to double the recommended dose in order to achieve effective protection,15,"increase in airway resistance, end of test period ([7]; 115 minutes (FIG. 5A)): over 160%; increase in airway resistance, initial ([7]; first histamine challenge (FIG. 5A)): 60%"
